Consider two molecules from paper PMC12575728, “Galactose-modified small molecule modulator targets RORα to enhance circadian rhythm and alleviate periodontitis-associated alveolar bone loss” (Bone Research, 2025).

Assay [1] concerns the target T1, RORα (Homo sapiens, UniProt P35398).
T1 construct: HEK293T cells co-transfected with a full-length RORα gene and a luciferase reporter gene; expressed in transfected cells; host or cells: HEK293T
T1 sequence (P35398 1-523): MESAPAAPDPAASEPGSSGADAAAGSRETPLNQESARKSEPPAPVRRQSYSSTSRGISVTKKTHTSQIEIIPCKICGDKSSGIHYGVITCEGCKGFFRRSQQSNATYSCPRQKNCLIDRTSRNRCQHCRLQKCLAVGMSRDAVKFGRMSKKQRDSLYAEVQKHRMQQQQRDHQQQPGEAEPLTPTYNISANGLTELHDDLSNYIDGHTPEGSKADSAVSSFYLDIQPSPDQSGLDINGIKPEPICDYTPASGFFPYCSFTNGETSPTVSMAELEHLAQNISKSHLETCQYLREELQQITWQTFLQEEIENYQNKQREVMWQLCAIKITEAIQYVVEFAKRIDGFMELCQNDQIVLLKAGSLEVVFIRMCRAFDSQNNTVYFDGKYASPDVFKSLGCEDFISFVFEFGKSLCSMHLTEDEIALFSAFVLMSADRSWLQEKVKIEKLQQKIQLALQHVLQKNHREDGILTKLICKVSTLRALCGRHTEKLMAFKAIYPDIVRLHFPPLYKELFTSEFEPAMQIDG
Kind of assay: Luciferase reporter assay (G6Pase or FGF21 promoter) in HEK293T cells cotransfected with RORα. As to conditions: HEK293T, RORα; for luminescence of G6Pase and FGF21 luciferase reporters: vs DMSO. It counts as cell-based. As for the experimental part: HEK293T cells were transfected with Lipofectamine 8000 (ThermoFisher) strictly following the manufacturer’s instructions. Cotransfected HEK293T cells with RORα or RORγ plasmid and a reporter consisting of the G6Pase or FGF21 promoters upstream of a luciferase reporter gene. 500 ng plasmid DNA was transfected into each well of 24 well-plate 24 h after the transfection, DMSO or Gala-SR and SR1078 (5 µmol/L) was added and incubated for 24 h. The Lumicycle instrument detects luminescence and records the numerical value.

Assay [2] relates to BMAL1. Kind of assay: BMAL1 immunofluorescence in synchronized U2OS cells. Format: cell-based, human. Conditions: 5 µmol/L. As for the experimental part: U2OS cells were seeded on coverslips and treated with drugs for 24 h. After treatment, the cells were washed 3 times with PBS and fixed with 4% paraformaldehyde at room temperature for 15 min. The cells were then permeabilized with 0.1% Triton X-100 (diluted in PBS) and blocked with 5% BSA (diluted in PBS) at room temperature for 30 min. Primary antibodies were incubated overnight at 4 °C. The next day, the cells were washed 3 times with PBST and incubated with Cy3-conjugated Affinipure Goat Anti-Rabbit IgG(H + L) secondary antibody (1:200) at room temperature for one hour, with DAPI added to stain the nuclei. After washing 3 times with PBST, images were captured using a laser confocal microscope (Nikon A1-Si).

The subject of assay [3] is PER2::LUC mice. Kind of assay: Real-time bioluminescence recording of PER2::LUC mice. Format: in vivo. As to conditions: 10 mg/kg IP at ZT0. As for the experimental part:
PER2::LUC mice at ages of 2–3 months-old were housed in 12:12 light-dark conditions for two weeks before the experiments.[33] Gala-SR and SR1078 (10 mg/kg) were dissolved in DMSO and I.P.injected into mouse at ZT0. After 1 h, D-luciferin was I.P. injected into mouse for another 0.5 h. Mice were then imaged on IVIS 673 Lumina III system and analyzed with live imaging software.

The test system of assay [4] is periodontitis mice with circadian rhythm disorders. Kind of assay: Ligature-induced periodontitis in circadian rhythm disordered (jet lag) mice. Format: in vivo. Conditions: for periodontal tissue destruction (HE staining): compared to DMSO-treated controls; for rhythmic expression of circadian genes in periodontal tissue: jet lag mice, 10 mg/kg IP daily for three weeks; for alveolar bone resorption (Micro-CT): jet lag periodontitis mice, 10 mg/kg IP daily, compared to DMSO; for IL-10-positive cell populations / NF-κB pathway mediators Tnf-α and Il-6: periodontal tissue; for TRAP-positive cell numbers (osteoclastic activity): relative to DMSO-treated periodontitis controls. The text has this:
Periodontitis has the highest incidence rate among all oral diseases and is a major cause of adult tooth loss. […] It is also reported that the inflammatory signaling pathways in periodontal tissue is over activated in periodontitis mice with circadian rhythm disorder.[40] Given this, we have substantial grounds to hypothesize that the restoration of circadian rhythms could potentially ameliorate periodontitis. According to our assumption, periodontal inflammation in circadian rhythm-disordered mice is more critical than in control mice under L:D conditions, resulting in a more severe alveolar bone resorption. Administration of Gala-SR and SR1078 is expected to restore the circadian rhythm, thereby alleviating the inflammation and reducing the alveolar bone absorption (Fig. 6a). […] The mice were initially subjected to a one-week L:D feeding regimen, followed by exposure to disordered conditions for four weeks. At the beginning of the third week, the mice received intraperitoneal injections of Gala-SR or SR1078 (10 mg/kg) or the equivalent amount of DMSO utilized to dissolve these modulators every day for three consecutive weeks. Mice without any treatment and mice treated with DMSO but kept in L:D condition were also set for controls. By the end of the fourth week, a ligature-induced periodontitis model was established as previously described,[39] and samples at different time points were collected one week later for subsequent tests (Fig. 6b).
Alveolar bones were harvested from mice and fixed after removal of soft tissues. The bones were then scanned at a resolution of 9 μm using Micro-CT (SkyScan 1176, Bruker). Images were reconstructed and quantified using InstaRecon/NRecon Research Workplace software. Metrics such as bone volume/total volume, trabecular thickness, bone surface area/bone volume, trabecular number, trabecular separation, and buccal-lingual alveolar bone resorption were used to assess differences among the mice.
Male C57BL/6 mice,[40] 2 months old, were housed under disrupted conditions for 4 weeks. From the third week, they were intraperitoneally injected with Gala-SR, SR1078, or DMSO for 3 weeks. In the fifth week, general anesthesia was administered via intraperitoneal injection of pentobarbital sodium (40 mg/kg), and a ligature was placed around the cervix of the maxillary second molar to establish the murine periodontitis model. Collect gingival tissue and liver tissue every 6 h continuously for a duration of 48 h.

In the case of `O=C(Nc1ccc(C(OCO[C@@H]2O[C@H](CO)[C@H](O)[C@H](O)[C@H]2O)(C(F)(F)F)C(F)(F)F)cc1)c1ccc(C(F)(F)F)cc1` [Gala-SR], in assay [1] (5 μmol/L), the “expression of G6Pase and FGF21 luciferase reporter genes compared to SR1078” value was “substantially elevated expression”; the “luminescence of G6Pase and FGF21 luciferase reporters” value is on record as “marked augmentation in the luminescence”. Also, the “activation of luciferase reporters, with galactosidase inhibitor” value in assay [1] (5 μmol/L Gala-SR + β-galactosidase inhibitor, vs Gala-SR alone) was “significantly decreased compared to the original level”. Further, the “expression of G6Pase and FGF21 luciferase reporter genes, combined with galactosidase” value in assay [1] (5 μmol/L Gala-SR + β-galactosidase, vs Gala-SR alone) is recorded as “significantly enhanced expression”. Besides, the “expression of BMAL1 (immunofluorescence)” value in assay [2] was “enhance the expression of BMAL1”. The liver luciferase signal result in assay [3] is given as “induced within 0.5 h of treatment”. Also, in assay [4], the “periodontal tissue destruction (HE staining)” value is “attenuated periodontal tissue destruction”, the “rhythmic expression of circadian genes in periodontal tissue” value is recorded as “restored their rhythmic expression”, the “alveolar bone resorption (Micro-CT)” value is listed as “significantly reduced alveolar bone resorption” and the IL-10-positive cell populations entry was “markedly increased”. For the same molecule, in assay [4], the “NF-κB pathway mediators Tnf-α and Il-6” value is recorded as “significantly downregulated”; the “TRAP-positive cell numbers (osteoclastic activity)” value was “marked reduction”.
Take `O=C(Nc1ccc(C(O)(C(F)(F)F)C(F)(F)F)cc1)c1ccc(C(F)(F)F)cc1` [SR1078, reference compound]: in assay [1] (5 μmol/L), the “luminescence of G6Pase and FGF21 luciferase reporters” value was “marked augmentation in the luminescence”. The “expression of BMAL1 (immunofluorescence)” value in assay [2] was “enhance the expression of BMAL1”. Besides, the liver luciferase signal entry in assay [3] was “induced within 0.5 h of treatment”. For the same molecule, in assay [4], the “periodontal tissue destruction (HE staining)” value is listed as “attenuated periodontal tissue destruction”, the “rhythmic expression of circadian genes in periodontal tissue” value was “restored their rhythmic expression”, the “alveolar bone resorption (Micro-CT)” value is on record as “significantly reduced alveolar bone resorption” and the IL-10-positive cell populations result is listed as “markedly increased”. Further, in assay [4], the “NF-κB pathway mediators Tnf-α and Il-6” value is on record as “significantly downregulated”; the “TRAP-positive cell numbers (osteoclastic activity)” value is reported as “marked reduction”.
